Source: US8173788B2, “Peptide having ability to activate cancer-related gene” (priority 2005, dated 2012)

Test system: human normal peripheral blood monocyte
Assay: Influence of the artificially synthesized peptide on normal cell genes: coculture 7 hr, DNA chip system (Clontech), about 55000 human genes (Table 4)
Assay type: cell-based
Procedure: (a) The peptide obtained in Example 3 was added to a human normal peripheral blood monocyte culture system (10 to 100 μg peptide/1×10^6 to 1×10^7 monocytes), and they were cocultured for 7 hr. Then, mRNA was extracted from the monocytes and was applied to analysis for up-regulation and down-regulation in respect to about 55000 human genes by using DNA chip system (Clontech).

[1] = Enhanced Gene, Immune System Gene, Gene No. 21607, colony stimulating factor 1 (macrophage) (CSF1), transcript variant 1
[2] = Enhanced Gene, Immune System Gene, Gene No. 22100, IL5-CI0001-181000-178-f03 CI0001 Homo sapiens cDNA
[3] = Enhanced Gene, Immune System Gene, Gene No. 22254, interleukin 4 (IL4), transcript variant 1
[4] = Enhanced Gene, Immune System Gene, Gene No. 25767, tumor necrosis factor (TNF superfamily, member 2) (TNF)
[5] = Enhanced Gene, Immune System Gene, Gene No. 28615, IL3-UT0117-080301-496-D07 UT0117 Homo sapiens cDNA
[6] = Enhanced Gene, Immune System Gene, Gene No. 29703, chemokine (C—X—C motif) ligand 9 (CXCL9)
[7] = Enhanced Gene, Immune System Gene, Gene No. 45170, transforming growth factor beta 1 induced transcript 1 (TGFB1I1)
[8] = Enhanced Gene, Immune System Gene, Gene No. 51904, interleukin 1 family, member 8 (eta) (IL1F8), transcript variant 1
[9] = Enhanced Gene, Oncogene, Gene No. 2183, neuro-oncological ventral antigen 1 (NOVA1), transcript variant 1
[10] = Enhanced Gene, Oncogene, Gene No. 3642, RAB2, member RAS oncogene family (RAB2)
[11] = Enhanced Gene, Oncogene, Gene No. 3858, preferentially expressed antigen in melanoma (PRAME), transcript variant 3
[12] = Enhanced Gene, Oncogene, Gene No. 4210, RAS-like, family 11, member A (RASL11A)
[13] = Enhanced Gene, Oncogene, Gene No. 6231, breast carcinoma amplified sequence 1 (BCAS1)
[14] = Enhanced Gene, Oncogene, Gene No. 6329, mutated in colorectal cancers (MCC)
[15] = Enhanced Gene, Oncogene, Gene No. 7394, HELA CELLS COT 25-NORMALIZED cDNA clone CS0DK007YM05 3-PRIME
[16] = Enhanced Gene, Oncogene, Gene No. 8431, Ras-associated protein Rap1 (RBJ)
[17] = Enhanced Gene, Oncogene, Gene No. 8440, mab-21-like 2 (C elegans) (MAB21L2)
[18] = Enhanced Gene, Oncogene, Gene No. 14195, B-cell translocation gene 4 (BTG4)
[19] = Enhanced Gene, Oncogene, Gene No. 18829, v-myc myelocytomatosis viral related oncogene, neuroblastoma derived (avian) (MYCN)
[20] = Enhanced Gene, Oncogene, Gene No. 21713, zn87b11y5 Stratagene lung carcinoma 937218 cDNA clone IMAGE: 565149 5′
[21] = Enhanced Gene, Oncogene, Gene No. 22388, zb91f05s1 Soares_parathyroid_tumor NbHPA cDNA clone IMAGE: 320193 3′
[22] = Enhanced Gene, Oncogene, Gene No. 22675, endogenous retroviral family W, env(C7), member 1 (syncytin) (ERVWE1), mRNA
[23] = Enhanced Gene, Oncogene, Gene No. 24910, platelet-derived growth factor beta polypeptide (simian sarcoma viral (v-sis) oncogene homolog) (PDGFB), transcript variant 2
[24] = Enhanced Gene, Oncogene, Gene No. 29317, T-cell leukemia/lymphoma 6 (TCL6), transcript variant TCL6a1
[25] = Enhanced Gene, Oncogene, Gene No. 32050, disrupted in renal carcinoma 1 (DIRC1)
[26] = Enhanced Gene, Oncogene, Gene No. 34854, NEUROBLASTOMA COT 25-NORMALIZED cDNA clone CS0DC018YE24 3-PRIME
[27] = Enhanced Gene, Oncogene, Gene No. 34979, yu38e06r1 Soares ovary tumor NbHOT cDNA clone IMAGE: 236098 5′
[28] = Enhanced Gene, Oncogene, Gene No. 36631, RAB43, member RAS oncogene family (RAB43), mRNA
[29] = Enhanced Gene, Oncogene, Gene No. 37781, NEUROBLASTOMA COT 25-NORMALIZED cDNA clone CS0DC011YD03 5-PRIME
[30] = Enhanced Gene, Oncogene, Gene No. 38566, RAS protein activator like 2, mRNA (cDNA clone IMAGE: 5399841), with apparent retained intron
[31] = Enhanced Gene, Oncogene, Gene No. 46997, clone N11 NTera2D1 teratocarcinoma mRNA
[32] = Suppressed Gene, Cancer Suppressing Gene, Gene No. 8280, brain specific protein (CGI-38)
[33] = Suppressed Gene, Cancer Suppressing Gene, Gene No. 11261, breast cancer metastasis suppressor 1 (BRMS1)
[34] = Suppressed Gene, Cancer Suppressing Gene, Gene No. 11438, serologically defined breast cancer antigen 84 (SDBCAG84), transcript variant 1
[35] = Suppressed Gene, Cancer Suppressing Gene, Gene No. 30909, tumor rejection antigen (gp96) 1 (TRA1)
[36] = Suppressed Gene, Cancer Suppressing Gene, Gene No. 35687, heat shock protein 75 (TRAP1)
[37] = Suppressed Gene, Cancer Suppressing Gene, Gene No. 36334, heat shock 70 kDa protein 14 (HSPA14)
[38] = Suppressed Gene, Cancer Suppressing Gene, Gene No. 37600, AHA1, activator of heat shock 90 kDa protein ATPase homolog 1 (yeast) (AHSA1)
[39] = Suppressed Gene, Cancer Suppressing Gene, Gene No. 50395, Ras suppressor protein 1 (RSU1), transcript variant 1
[40] = Suppressed Gene, Cancer Suppressing Gene, Gene No. 52111, leukemia cell normalized cDNA library cDNA clone LEU1757_26_C2
[41] = Suppressed Gene, Immune System Gene, Gene No. 4403, programmed cell death 4 (neoplastic transformation inhibitor) (PDCD4), transcript variant 2
[42] = Suppressed Gene, Immune System Gene, Gene No. 4899, interferon (alpha, beta and omega) receptor 2 (IFNAR2), transcript variant 1
[43] = Suppressed Gene, Immune System Gene, Gene No. 8634, perform 1 (pore forming protein) (PRF1)
[44] = Suppressed Gene, Immune System Gene, Gene No. 8922, interferon induced transmembrane protein 1 (9-27) (IFITM1)
[45] = Suppressed Gene, Immune System Gene, Gene No. 9938, interleukin 17D (IL17D)
[46] = Suppressed Gene, Immune System Gene, Gene No. 10204, interferon-related developmental regulator 1 (IFRD1)
[47] = Suppressed Gene, Immune System Gene, Gene No. 10791, HLA-B associated transcript 5 (BAT5)
[48] = Suppressed Gene, Immune System Gene, Gene No. 11236, natural killer cell group 7 sequence (NKG7), mRNA
[49] = Suppressed Gene, Immune System Gene, Gene No. 11635, thymosin, beta 4, Y-linked (TMSB4Y)

the Peptide (QPQFGRRMESK; Human squamous cell carcinoma)
Enhancement Ratio [1]: 7.233
Expression Amount after Treatment with the Peptide [1]: 24.93
Enhancement Ratio [2]: 1.853
Expression Amount after Treatment with the Peptide [2]: 608.5
Enhancement Ratio [3]: 4.547
Expression Amount after Treatment with the Peptide [3]: 122.7
Enhancement Ratio [4]: 37.72
Expression Amount after Treatment with the Peptide [4]: 4927
Enhancement Ratio [5]: 7.555
Expression Amount after Treatment with the Peptide [5]: 20.69
Enhancement Ratio [6]: 30.05
Expression Amount after Treatment with the Peptide [6]: 19.83
Enhancement Ratio (Enhanced Gene, Immune System Gene, Gene No. 30707, immunoglobulin superfamily, member 4C (IGSF4C)): 7.379
Enhancement Ratio [7]: 2.225
Expression Amount after Treatment with the Peptide [7]: 85.26
Enhancement Ratio [8]: 4.932
Expression Amount after Treatment with the Peptide [8]: 11.37
Enhancement Ratio [9]: 2.53
Expression Amount after Treatment with the Peptide [9]: 8.623
Enhancement Ratio [10]: 2.032
Expression Amount after Treatment with the Peptide [10]: 3307
Enhancement Ratio [11]: 2.462
Expression Amount after Treatment with the Peptide [11]: 22.62
Enhancement Ratio [12]: 6.36
Expression Amount after Treatment with the Peptide [12]: 393.7
Enhancement Ratio [13]: 9.349
Expression Amount after Treatment with the Peptide [13]: 5.453
Enhancement Ratio [14]: 1.786
Expression Amount after Treatment with the Peptide [14]: 67.54
Enhancement Ratio [15]: 11.83
Expression Amount after Treatment with the Peptide [15]: 350.3
Enhancement Ratio [16]: 2.435
Expression Amount after Treatment with the Peptide [16]: 18.61
Enhancement Ratio [17]: 2.175
Expression Amount after Treatment with the Peptide [17]: 15.71
Enhancement Ratio [18]: 2.567
Expression Amount after Treatment with the Peptide [18]: 7.219
Enhancement Ratio [19]: 2.225
Expression Amount after Treatment with the Peptide [19]: 15.32
Enhancement Ratio [20]: 45.9
Expression Amount after Treatment with the Peptide [20]: 7.742
Enhancement Ratio [21]: 9.47
Expression Amount after Treatment with the Peptide [21]: 571.2
Enhancement Ratio [22]: 2.498
Expression Amount after Treatment with the Peptide [22]: 204.4
Enhancement Ratio [23]: 1.898
Expression Amount after Treatment with the Peptide [23]: 55.05
Enhancement Ratio [24]: 3.478
Expression Amount after Treatment with the Peptide [24]: 10.06
Enhancement Ratio [25]: 28.44
Expression Amount after Treatment with the Peptide [25]: 9.806
Enhancement Ratio [26]: 26.92
Expression Amount after Treatment with the Peptide [26]: 1.098
Enhancement Ratio [27]: 9.116
Expression Amount after Treatment with the Peptide [27]: 24.17
Enhancement Ratio [28]: 5.871
Expression Amount after Treatment with the Peptide [28]: 417.5
Enhancement Ratio [29]: 12.79
Expression Amount after Treatment with the Peptide [29]: 32.41
Enhancement Ratio [30]: 1.982
Expression Amount after Treatment with the Peptide [30]: 14.55
Enhancement Ratio [31]: 21.14
Expression Amount after Treatment with the Peptide [31]: 236.2
Expression Amount after Treatment with the Peptide [32]: 9
Suppression Ratio [32]: 84.27
Expression Amount after Treatment with the Peptide [33]: 6.257
Suppression Ratio [33]: 60.59
Expression Amount after Treatment with the Peptide [34]: 14.74
Suppression Ratio [34]: 81.87
Expression Amount after Treatment with the Peptide [35]: 11.47
Suppression Ratio [35]: 86.08
Expression Amount after Treatment with the Peptide [36]: 0.2252
Suppression Ratio [36]: 461.4
Expression Amount after Treatment with the Peptide [37]: 2.08
Suppression Ratio [37]: 164.2
Expression Amount after Treatment with the Peptide [38]: 8.429
Suppression Ratio [38]: 116.6
Expression Amount after Treatment with the Peptide [39]: 8.763
Suppression Ratio [39]: 53.66
Expression Amount after Treatment with the Peptide [40]: 13.6
Suppression Ratio [40]: 43.65
Expression Amount after Treatment with the Peptide [41]: 21.97
Suppression Ratio [41]: 40.6
Expression Amount after Treatment with the Peptide [42]: 4.5
Suppression Ratio [42]: 119.2
Expression Amount after Treatment with the Peptide [43]: 10.2
Suppression Ratio [43]: 92.95
Expression Amount after Treatment with the Peptide [44]: 110.9
Suppression Ratio [44]: 98.91
Expression Amount after Treatment with the Peptide [45]: 0.3
Suppression Ratio [45]: 39.28
Expression Amount after Treatment with the Peptide [46]: 9.714
Suppression Ratio [46]: 71.65
Expression Amount after Treatment with the Peptide [47]: 3.429
Suppression Ratio [47]: 150.9
Expression Amount after Treatment with the Peptide [48]: 65.47
Suppression Ratio [48]: 72.38
Expression Amount after Treatment with the Peptide [49]: 2.5
Suppression Ratio [49]: 42.45
Expression Amount after Treatment with the Peptide (Suppressed Gene, Immune System Gene, Gene No. 11651, implantation-associated protein (DKFZp564K142)): 12.84
